Laboratory results as given in US11083717B2, “Compositions and methods for drug sensitization of parasites” (The Texas A&M University System, priority 2015, dated 2021).
In brackets after ≈: the same amount, converted by molar mass. Where two headings read alike, the source gives them in different places.

Legend:
[1] = test system: Cryptosporidium parvum (CP); assay: Cell culture model of Cryptosporidium parvum infection in HCT-8 cells, real-time qRT-PCR; type: cell-based; conditions: Cryptosporidium parvum; for MIC50: 44 h
Method: Fresh oocysts of CP (Iowa strain) were purchased from Bunch Grass Farm (Deary, Id.). Oocysts were further purified by a Percoll-based gradient centrifugation method and surface sterilized with 10% bleach for 7 min on ice, followed by washes with phosphate-buffered saline (PBS). An ileocecal colorectal adenocarcinoma cell line (HCT-8, ATCC #CCL-244) was used to host the growth of CP in vitro. One day before the inoculation, HCT-8 cells were seeded in 96-well plates (2.5×10^4/well) containing RPMI 1640 medium supplied with 10% fetal bovine serum (200 μL medium/well in all experiments) and allowed to grow overnight at 37° C. under 5% CO2 atmosphere until they reached ˜90% confluence. For drug testing, host cells were infected with 1.5×10^4 oocysts per well (ratio ˜1:3). After inoculation, parasite oocysts were allowed to undergo excystation and invasion into host cells for 3 h at 37° C. Free parasites and oocyst walls in the medium were removed from the plates by an exchange of the culture medium. Drugs at specified concentrations were added into the culture at this time point (immediately after the medium exchange). Parasite-infected cells were then incubated at 37° C. for additional 41 h (total 44 h infection time). At least two independent experiments were conducted for every experimental condition, each including two replicates drugs and eight replicates for negative controls.
Plates containing HCT-8 cells infected with CP for 44 h were first centrifuged for 10 min at 1000×g to ensure that free merozoites in the medium were firmly settled on the bottom of the wells. Medium was removed, followed by two gentle washes with PBS. For extracting total RNA, 200 μL of ice-cold Bio-Rad iScript qRT-PCR sample preparation reagent (lysis buffer) (Bio-Rad Laboratories, Hercules, Calif.) was added into each well. Plates were sealed with heat sealing films and subjected to vortex for 20 min. Plates were then incubated at 75° C. for 15 min, followed by centrifugation (5 min, 2000×g) to settle down cell debris. Supernatants were used immediately in subsequent qRT-PCR reactions or the plates were stored at −80° C. until use.
The levels of 18S rRNA transcripts from CP and host cells (referred to as Cp18S and Hs18S) were detected by real-time qRT-PCR method using qScrip™ one-step SYBR green qRT-PCR kit (Quanta Biosciences, Gaithersburg, Md.). Cell lysates prepared as described above were diluted by 100 and 2000 folds for detecting Cp18S and Hs18S transcripts, respectively. Reactions were performed in hard-shell 384-well skirted PCR plates (Bio-Rad Laboratories, Hercules, Calif.) (10 μL/well) containing 3 μL diluted cell lysate, 5 μL one-step SYBR green master mix, 0.2 μl RT master mix and the following primers: Cp18S-1011F and Cp18S-1185R primer pair for Cp18S rRNA, and Hs18S-1F and Hs18S-1R primer pair for Hs18S rRNA. Hs18S levels were used as controls and for normalization.
Real-time qRT-PCR reactions were performed by a Bio-Rad CFX384 Touch Real-Time PCR Detection System. The reactions started with synthesizing cDNA at 50° C. for 20 min, followed by 5 min at 95° C. to denature RNA-cDNA hybrids and deactivate reverse transcriptase, and 40 two-temperature thermal cycles of PCR amplification at 95° C., 10 sec and 58° C., 30 sec. At the end of PCR amplification, melting curve analysis was performed between 65° C. to 95° C. At least 2 technical replicates were included in qRT-PCR reactions for each sample.
The % inhibition (% inh @ (μM)) was calculated using a standard curve.

S. cerevisiae = assay: in vitro; conditions: Saccharomyces cerevisiae
human fibroblast = assay: in vitro
[2] = HCT-8, @10 uM, read-out: % inh @
[3] = CP in HCT-8 cells, 44 h infection, 50% reduction of parasite growth vs control, NA: not active, read-out: MIC50

Structure (SMILES) | concentrations at which not toxic, S. cerevisiae cytotoxicity testing (S. cerevisiae) [µM] | concentrations at which not toxic, human fibroblast cytotoxicity testing (human fibroblast; human) [µM] | MIC50 [1, 3] [µM] | further results
CONC(=O)COc1ccc(Oc2cnc3cc(Cl)ccc3n2)cc1 [NZ-274, 2-{4-[(6-chloroquinoxalin-2-yl)oxy]phenoxy}-N-methoxyacetamide] | ≥ 100 |  |  | inhibition at 10 µM ([1]; HCT-8, read-out: % inh @ (μM)): 1.5%; concentrations at which not toxic, human fibroblast cytotoxicity testing (human fibroblast): ≥ 100 µM
CONC(=O)[C@@H](C)Oc1ccc(Oc2cnc3cc(Cl)ccc3n2)cc1 [NZ-295, (2R)-2-{4-[(6-chloroquinoxalin-2-yl)oxy]phenoxy}-N-methoxypropanamide] | ≥ 100 | ≥ 100 |  | inhibition at 10 µM [1, 2]: 61%
CONC(=O)C(C)c1ccc(Oc2cnc3cc(Cl)ccc3n2)cc1 (centres unmarked) [NZ-310, 2-{4-[(6-chloroquinoxalin-2-yl)oxy]phenyl}-N-methoxypropanamide] | ≥ 100 | ≥ 100 |  | inhibition at 10 µM [1, 2]: 83%
CC(C)NC(=O)Nc1ccc(Oc2nc3ccc(Cl)cc3s2)cc1 [NZ-331, 1-{4-[(6-chloro-1,3-benzothiazol-2-yl)oxy]phenyl}-3-(propan-2-yl)urea] | ≥ 100 |  |  | inhibition at 0.05 µM ([1]; HCT-8, read-out: % inh @ (μM)): 36%; concentrations at which not toxic, human fibroblast cytotoxicity testing (human fibroblast): ≥ 100 µM
CC(C)NC(=O)Nc1ccc(Oc2nc3ccc(F)cc3s2)cc1 [NZ-332, 1-{4-[(6-fluoro-1,3-benzothiazol-2-yl)oxy]phenyl}-3-(propan-2-yl)urea] | ≥ 100 |  |  | MIC50 [1]: ~2.5 µM (≈ 0.863 µg/mL); concentrations at which not toxic, human fibroblast cytotoxicity testing (human fibroblast): ≥ 100 µM
CC(C(=O)N(C)C)c1ccc(Oc2nc3ccc(Cl)cc3s2)cc1 (centres unmarked) [NZ-368, 2-{4-[(6-chloro-1,3-benzothiazol-2-yl)oxy]phenyl}-N,N-dimethylpropanamide] | 25 to 50 | ≥ 100 | < 0.125 | 
CC(C(=O)NC(CO)CO)c1ccc(Oc2nc3ccc(Cl)cc3s2)cc1 (centres unmarked) [NZ-371, 2-{4-[(6-chloro-1,3-benzothiazol-2-yl)oxy]phenyl}-N-(1,3-dihydroxypropan-2-yl)propanamide] | ≥ 100 | ≥ 100 | 0.15 to 0.23 (≈ 0.061 to 0.0936 µg/mL) | 
CNC(=O)C(C)c1ccc(Oc2nc3ccc(F)cc3s2)cc1 (centres unmarked) [NZ-386, 2-{4-[(6-fluoro-1,3-benzothiazol-2-yl)oxy]phenyl}-N-methylpropanamide] | ≥ 100 | ≥ 100 | 0.05 to 0.3 (≈ 0.0165 to 0.0991 µg/mL) | 
CNC(=O)C(C)c1ccc(Oc2nc3cc(F)c(F)cc3s2)cc1 (centres unmarked) [NZ-387, 2-{4-[(5,6-difluoro-1,3-benzothiazol-2-yl)oxy]phenyl}-N-methylpropanamide] | ≥ 100 | ≥ 100 | ~0.44 (≈ 0.153 µg/mL) | 
CNC(=O)Cc1ccc(Oc2nc3ccc(Cl)cc3s2)cc1O [NZ-389, 2-{4-[(6-chloro-1,3-benzothiazol-2-yl)oxy]-2-hydroxyphenyl}-N-methylacetamide] | ≥ 100 | ≥ 100 | ~1.1 (≈ 0.384 µg/mL) | 
CNC(=O)Cc1ccc(Oc2nc3ccc(F)cc3s2)cc1O [NZ-395, 2-{4-[(6-fluoro-1,3-benzothiazol-2-yl)oxy]-2-hydroxyphenyl}-N-methylacetamide] | ≥ 100 | ≥ 100 | ~5 (≈ 1.66 µg/mL) | 
COC(=O)Cc1ccc(Oc2nc3cc(F)c(F)cc3s2)cc1 [NZ-398, methyl 2-{4-[(5,6-difluoro-1,3-benzothiazol-2-yl)oxy]phenyl}acetate] | ≥ 100 |  |  | MIC50 [1]: ~10 µM; inhibition at 10 µM ([1]; HCT-8, read-out: % inh @ (μM)): 50%; concentrations at which not toxic, human fibroblast cytotoxicity testing (human fibroblast): ≥ 100 µM
CNC(=O)Cc1ccc(Oc2nc3cc(F)c(F)cc3s2)cc1 [NZ-400, 2-{4-[(5,6-difluoro-1,3-benzothiazol-2-yl)oxy]phenyl}-N-methylacetamide] | ≥ 100 |  |  | MIC50 [1]: ~10 µM (≈ 3.34 µg/mL); inhibition at 10 µM ([1]; HCT-8, read-out: % inh @ (μM)): 67%; concentrations at which not toxic, human fibroblast cytotoxicity testing (human fibroblast): ≥ 100 µM
CNC(=O)Cc1ccc(Oc2nc3cc(F)c(F)cc3s2)cc1O [NZ-401, 2-{4-[(5,6-difluoro-1,3-benzothiazol-2-yl)oxy]-2-hydroxyphenyl}-N-methylacetamide] | ≥ 100 |  |  | inhibition at 4 µM ([1]; HCT-8, read-out: % inh @ (μM)): 3%; concentrations at which not toxic, human fibroblast cytotoxicity testing (human fibroblast): ≥ 100 µM
CC(C)NC(=O)Cc1ccc(Oc2nc3cc(F)c(F)cc3s2)cc1 [NZ-403, 2-{4-[(5,6-difluoro-1,3-benzothiazol-2-yl)oxy]phenyl)-N-(propan-2-yl)acetamide] | ≥ 100 | ≥ 100 | ~10 (≈ 3.62 µg/mL) | inhibition at 10 µM [1, 2]: 63%
CN1CCN(C(=O)Cc2ccc(Oc3nc4cc(F)c(F)cc4s3)cc2)CC1 [NZ-409, 2-{4-[(5,6-difluoro-1,3-benzothiazol-2-yl)oxy]phenyl}-1-(4-methylpiperazin-1-yl)ethan-1-one] | ≥ 100 | ≥ 100 | ~0.44 (≈ 0.178 µg/mL) | 
CNC(=O)Cc1ccc(Oc2nc3ccc(F)cc3s2)cc1F [NZ-410, 2-{2-fluoro-4-[(6-fluoro-1,3-benzothiazol-2-yl)oxy]phenyl}-N-methylacetamide] | ≥ 100 |  |  | MIC50 [1]: 2 to 10 µM (≈ 0.669 to 3.34 µg/mL); inhibition at 10 µM ([1]; HCT-8, read-out: % inh @ (μM)): 94%; concentrations at which not toxic, human fibroblast cytotoxicity testing (human fibroblast): ≥ 100 µM
O=C(NC1COC1)C1(c2ccc(Oc3nc4ccc(Cl)cc4s3)cc2)CC1 [NZ-564, 1-{4-[(6-chloro-1,3-benzothiazol-2-yl)oxy]phenyl}-N-(oxetan-3-yl)cyclopropane-1-carboxamide] |  |  | 0.054 (≈ 0.0216 µg/mL) | 
O=C(Nc1ccc(Oc2nc3ccc(Cl)cc3s2)cc1)N1CCOCC1 [NZ-572, N-{4-[(6-chloro-1,3-benzothiazol-2-yl)oxy]phenyl}morpholine-4-carboxamide] |  |  | ~0.5 (≈ 0.195 µg/mL) | 
O=C(Nc1ccc(Oc2nc3ccc(Cl)cc3s2)cc1)N1CCS(=O)(=O)CC1 [NZ-573, N-{4-[(6-chloro-1,3-benzothiazol-2-yl)oxy]phenyl}-1,1-dioxo-1λ^6,4-thiomorpholine-4-carboxamide] |  |  | ~0.5 (≈ 0.219 µg/mL) | 
O=C(Nc1ccc(Oc2nc3ccc(Cl)cc3s2)cc1)NC1COC1 [NZ-574, 1-{4-[(6-chloro-1,3-benzothiazol-2-yl)oxy]phenyl}-3-(oxetan-3-yl)urea] |  |  | ~1 (≈ 0.376 µg/mL) | 
O=C(Cc1ccc(Oc2nc3ccc(Cl)cc3s2)cc1)N1CCOCC1 [NZ-575, 2-{4-[(6-chloro-1,3-benzothiazol-2-yl)oxy]phenyl}-1-(morpholin-4-yl)ethan-1-one] |  |  | ~1 (≈ 0.389 µg/mL) | 
O=C(Cc1ccc(Oc2nc3ccc(Cl)cc3s2)cc1)N1CCS(=O)(=O)CC1 [NZ-576, 4-(2-{4-[(6-chloro-1,3-benzothiazol-2-yl)oxy]phenyl}acetyl)-1λ^6,4-thiomorpholine-1,1-dione] |  |  | ~0.03 (≈ 0.0131 µg/mL) | 
O=C(Cc1ccc(Oc2nc3ccc(Cl)cc3s2)cc1)NC1COC1 [NZ-577, 2-{4-[(6-chloro-1,3-benzothiazol-2-yl)oxy]phenyl}-N-(oxetan-3-yl)acetamide] |  |  | ~0.25 (≈ 0.0937 µg/mL) | 
